Laboratory results taken from patent publication US8242144B2, “Stilbenes and chalcones for the prevention and treatment of cardiovascular diseases” (Resverlogix Corp., priority 2004, dated 2012).

Assays:
human ApoA-I promoter [1] = assay: ApoA-I promoter induction in Caco-2 intestinal cells (pAI.474-Luc luciferase reporter); assay type: cell-based; conditions: Caco-2 cells, luciferase activity vs untreated/control, average values at 15 μM, 48 hours incubation
Procedure: Briefly, the promoter region of the gene encoding human ApoA-I was isolated and ligated upstream of the firefly luciferase gene to construct the reporter plasmid pAI.474-Luc. This reporter plasmid and pRSV-β-galactosidase (as a control for transfection efficiency) were co-transfected to Caco-2 cells. The Caco-2 cells were then incubated in a MEM selection media containing 20% fetal calf serum supplemented with G418 (final concentration: 0.5 mg/mL, Gibco) to give established strains that stably express from the reporter gene. […] Cells were starved for 24 hrs in MEM selection media containing 0.5% FBS. Then, a solution of a compound of the invention in DMSO or other appropriate solvent was added to the wells at a final concentration of 0 to 100 μM in MEM selection media containing 0.5% FBS.
Measures of luciferase activity were normalized to lysate protein concentrations, measured using Bradford Reagent (BioRad Protein Assay reagent Cat#500-0006). The luciferase activity of cells treated with various concentrations of test compounds was compared to that of control sample (i.e., solvent without any compound of the present invention added) and untreated samples.

human ApoA-I promoter [2] = assay: ApoA-I promoter induction in HepG2 liver cells (pAI.474-Luc luciferase reporter); assay type: cell-based; conditions: luciferase activity vs untreated/control, average values at 15 μM, 48 hours incubation
Procedure: This study determined whether compounds of the invention have an effect on ApoA-I promoter activity expression in HepG2 cells, a liver cell line. Cells were grown under conditions recommended by the ATCC and summarized by Wong.
The promoter region of the gene encoding human ApoA-I was isolated and ligated upstream the structure gene of firefly luciferase to construct a reporter plasmid (pAI.474-Luc). The reporter plasmid, along with pRSV-β-galactosidase (as a control for transfection efficiency) were co-transfected into HepG2 cells. The cells were then incubated in an MEM selection medium containing 20% fetal calf serum supplemented with G418 (final concentration: 0.5 mg/mL, Gibco) to give established strains that stably express from the reporter gene. The strains were seeded to a 6-well culture plates and incubated for 48 hours at 37° C. under 5% carbon dioxide. Cells were starved for 24 hrs in MEM selection media containing 0.5% FBS. Then, a solution of the compounds of the invention in DMSO (or other appropriate solvent) was added to the wells at a final concentration of 0 to 100 μM in MEM selection media containing 0.5% FBS.
After further incubation for 48 hours, the cells were harvested and lysed using Reporter Lysis Buffer (PROMEGA E3971), and 50 μL of luciferase assay reagent (PROMEGA E4550 Luciferase Reporter 1000 assay system) were added to measure luciferase activity with a luminometer (Fluoroskan Ascent FL from Thermo electron Corporation). Measures of luciferase activity were normalized to lysate protein concentrations, measured using Bradford Reagent (Biorad Protein Assay reagent Cat#500-0006).

[3] = Caco-2 permeability (in vitro Caco-2 intestinal transport model); assay type: in vitro ADME, human; conditions: human, Caco-2
Excerpt: (§1) The Caco-2 cell drug transport model is widely used for screening compounds in drug discovery to assess intestinal transport and predict absorption rates. […] Sun et al., “In vitro testing of drug absorption for drug ‘developability’ assessment: forming an interface between in vitro preclinical data and clinical outcome,” Curr. Opin. Drug Discov. Devel.

Caco-2 cells = assay: as above; assay type: in vitro ADME, human; conditions: in vitro Caco-2 intestinal transport model
Excerpt: as §1

human ApoA-I promoter [4] = conditions: Caco-2 cells, reported by Wong; cited from earlier work

Row | melting point [°C] | SMILES | ApoA-I Promoter Induction (human ApoA-I promoter [1]) | further results
1 | – | COc1ccc(C(=O)/C=C/c2ccc(O)cc2O)cc1 [2,4-Dihydroxy-4′-methoxy-chalcone] | increased | –
2 | – | O=C(/C=C/c1ccc(O)cc1)c1ccc(O)cc1O [4,2′,4′-Trihydroxy-chalcone] | increased | –
3 | – | Oc1ccc(/C=C/c2ccc(O)cc2)cc1 [4,4′-dihydroxy-stilbene] | increased | ApoA-I Promoter Induction (human ApoA-I promoter [2]): increased
4 | – | O=C(/C=C/c1ccc(O)cc1)c1ccccc1 [4-Hydroxy-chalcone] | increased | –
5 | – | COc1ccc(/C=C/C(=O)c2ccccc2)cc1 [4-Methoxy-chalcone] | increased | –
6 | – | Oc1ccc(/C=C/c2cc(O)cc(O)c2)cc1 [Example 1, Resveratrol] | increased | ApoA-I Promoter Induction (human ApoA-I promoter [2]): increased
7 | – | Oc1ccc(/C=C/c2ccc(O)nc2)cc1 [Example 2, 5-[(E)-2-(4-Hydroxy-phenyl)-vinyl]-pyridin-2-ol] | increased | –
8 | 192 to 194 | COc1cc(O)ccc1/C=C/c1ccc(O)cc1 [Example 3, 4-[(E)-2-(4-Hydroxy-phenyl)-vinyl]-3-methoxy-phenol] | increased | ApoA-I Promoter Induction (human ApoA-I promoter [2]): increased
9 | 223 to 225 | OCc1cc(O)ccc1/C=C/c1ccc(O)cc1 [Example 4, 3-Hydroxymethyl-4-[(E)-2-(4-hydroxy-phenyl)-vinyl]-phenol] | increased | Papp [3]: 1.79 ×10⁻⁶ cm/s
10 | 241 to 243 | O=C(O)c1cc(/C=C/c2ccc(O)cc2)ccc1O [Example 5, 2-Hydroxy-5-[(E)-2-(4-hydroxyphenyl)vinyl]benzoic acid] | no | –
11 | 237 to 240 | O=[N+]([O-])c1cc(O)ccc1/C=C/c1ccc(O)cc1 [Example 6, 3-Nitro-4-[(E)-2-(4-hydroxyphenyl)-vinyl]phenol] | increased | ApoA-I Promoter Induction (human ApoA-I promoter [2]): increased; Papp [3]: 1.95 ×10⁻⁶ cm/s
12 | 269 to 271 | CCOC(=O)c1cc(/C=C/c2ccc(O)cc2)ccc1O [Example 7, (E)-Ethyl 2-hydroxy-5-(4-hydroxystyryl) benzoate] | increased | –
13 | 272 to 274 | NC(=O)c1cc(/C=C/c2ccc(O)cc2)ccc1O [Example 8, (E)-2-Hydroxy-5-(4-hydroxystyryl)benzamide] | increased | –
14 | 244 to 245 | CS(=O)(=O)c1cc(O)ccc1/C=C/c1ccc(O)cc1 [Example 9, 4-[(E)-2-(4-Hydroxyphenyl)vinyl]-3-methanesulfonylphenol] | – | –
15 | 229 to 232 | Nc1cc(O)ccc1/C=C/c1ccc(O)cc1 [Example 10, 3-Amino-4-[(E)-2-(4-hydroxy-phenyl)vinyl]phenol] | increased | –
16 | 227 to 229 | CC(=O)Nc1cc(O)ccc1/C=C/c1ccc(O)cc1 [Example 11, N-{5-Hydroxy-2-[(E)-2-(4-hydroxyphenyl)vinyl]phenyl}-acetamide] | – | –
17 | 183.5 to 187.7 | CN(C)C(=O)c1cc(O)ccc1/C=C/c1ccc(O)cc1 [Example 12, 5-Hydroxy-2-[2-(4-hydroxyphenyl)vinyl]-N,N-dimethyl-benzamide] | increased | –
18 | – | Oc1ccc(CCc2ccc(O)cc2)cc1 [Example 17, 4-[4-Hydroxy-phenethyl]-phenol] | increased | ApoA-I Promoter Induction (human ApoA-I promoter [2]): increased
19 | – | O=S(=O)(Nc1ccc(O)cc1)c1ccc(O)cc1 [Example 19, 4-Hydroxy-N-(4-hydroxyphenyl)-benzenesulfonamide] | increased | –
20 | – | O=C(Oc1ccccn1)c1ccc(O)cc1 [Example 20, 4-Hydroxy-benzoic acid pyridin-2-yl ester] | – | Papp [3]: 2 ×10⁻⁶ cm/s
21 | – | Oc1ccc(/N=N/c2ccc(O)cc2)cc1 [Example 21, 4-(4-Hydroxy-phenyl)-azophenol] | – | Papp [3]: 8.73 ×10⁻⁶ cm/s
22 | – | CCCO [Propanol, reference compound] | – | % Transported Paap (Caco-2 cells): 10.1 ×10⁻⁶ cm/s
23 | – | Oc1ccc(/C=C/c2cc(O)cc(O)c2)cc1 [resveratrol] | – | stimulation of ApoA-I promoter activity at 4, 8, 16 and 24 hours following administration (human ApoA-I promoter [4]): significant stimulation
